{
  "source": "patent US5188642A",
  "about": "“Glyphosate-resistant plants” (priority 1990, dated 1993)",
  "key": {"MP4 cells": {"tested_on": "MP4 cells", "assay": "Culture of MP4 petunia suspension cells in MS media containing glyphosate", "assay_type": "cell-based", "conditions": "0.5 mM glyphosate (sodium salt)", "procedure": "The starting cell line, designated as the MP4 line, was derived from a Mitchell diploid petunia (see, e.g., Ausubel 1980). The MP4 cells were suspended in Murashige and Skoog (MS) culture media, (GIBCO, Grand Island, N.Y.) All transfer involved the transfer of 10 ml of suspension culture into 50 ml of fresh media. Cultivation periods until the next transfer ranged from 10 to 14 days, and were based on visual indications that the culture was approaching saturation.\nAfter two transfers, the surviving cells were transferred into fresh media containing 1.0 mM glyphosate. After two transfers at 1.0 mM, the surviving cells were transferred sequentially into 2.5 mM glyphosate, 5.0 mM glyphosate, and 10 mM glyphosate. The MP4-G cells were subsequently shown (by a Southern blot) to have about 15-20 copies of the EPSPS gene, due to a genetic process called \"gene amplification\" (see, e.g., Schimke 1982). Although spontaneous mutations might have occurred during the replication of any cell, there is no indication that any mutation or other modification of the EPSPS gene occurred during the gene amplification process. The only known difference between the MP4 and the MP4-G cells is that the MP4-G cells contain multiple copies of an EPSPS gene and possibly other genes located near it on the chromosomes of the cells."}, "tobacco leaf fragments": {"tested_on": "tobacco leaf fragments", "assay": "Tobacco leaf callus assay on glyphosate", "assay_type": "cell-based, tobacco (Samsun variety)", "conditions": "0.5 mM glyphosate, 10 days", "procedure": "Transformed tobacco plants (Samsun variety) were produced and grown by the method described in Example 4, substituting transformed tobacco leaf disks for transformed petunia leaf disks.\nTobacco plants were tested for glyphosate resistance using the method described for tomato plants in Example 5. Tobacco leaf fragments from plants containing vector alone (pMON200) or the pMON546 chimeric EPSPS gene were incubated on callus medium containing 0.5 mM glyphosate."}, "[1]": {"tested_on": "potato stem explant tissue", "conditions": "tissue transformed with pMON542", "procedure": "Potato--Shoot tips of virus-free Russet Burbank are subcultured on media containing MS major and minor salts, 0.17 g/l sodium dihygrogen phosphate, 0.4 mg/l thiamine hydrochloride, 0.1 g/l inositol, 3% sucrose, 1.5 g/l Gelrite™ (Kelco, Co ) at pH 5.6. Cultures are grown at 24C in a 16 hour photoperiod. Shoots are used approximately 3-4 weeks after subculturing. Stem internodes are cut into approximately 8 mm lengths and split lengthwise, then the cut surface is smeared with Agrobacterium carrying binary vector pMON542 and helper plasmid pTiT37-SE which had been streaked on an LB agar plate and grown for a few days. Stem sections are placed cut side down on the surface of the medium containing MS salts, MS organics, 3% sucrose, 2.25 mg/l BA, […] NAA, 10 mg/l GA, 1.5 g/l Gelrite at pH 5.6. After 4 days, the stem explants are transferred to the same medium but with carbenicillin at 500 mg/l and kanamycin as the selective agent at 0 or 300 mg/l. Two weeks after inoculation, the explants are moved onto medium of the same composition but without NAA."}, "transgenic canola lines": {"tested_on": "transgenic canola lines", "assay": "Glyphosate spray test, reproductive scores of transgenic canola (Example 21)", "assay_type": "in vivo", "from_the_text": "Transgenic plants containing the Arabidopsis EPSP synthase gene containing a single glycine to alamine mutation at […] 101 driven by either the FMV promoter or the CaMVe35S promoter were obtained and analyzed for resistance to glyphosate. The transgenic plants containing the Arabidopsis EPSP synthase gene (as described above) directed by the FMV promoter contained pMON996, FIG. 12 and FIG. 13, while those plants containing the enhanced CaMVe35S promoter contained pMON899. These transgenic plants were planted and the seed from the Ro plants harvested, threshed and dried before planting for a glyphosate spray test. The progeny were planted in 4-inch square pots of Metro 350 and three types of slow release fertilizers. A goal of twenty seedlings from each Ro plant is desirable for testing. Germination frequency is usually high but overplanting ensures that twenty seedlings are present. The plants were thinned down by selecting the twenty most vigorous and erect seedlings seven to ten days after planting. A negative control (non-transformed, \"Westar\" variety) was planted at the same time to maintain quality and display the results. The plants were maintained and grown in a greenhouse environment. A sixteen-hour photoperiod and a temperature of 21° C. (day) and 15° C. (night) was maintained. […]"}, "[2]": {"tested_on": "sunflower tumors and callus", "assay": "Sunflower tumor and callus tolerance to glyphosate", "assay_type": "cell-based", "from_the_text": "The following procedures are utilized to obtain transformed sunflower tissue and shoots. Tumors are incited on sterile sunflower seedlings. Sunflower seeds are surface sterilized with 40% Chlorox and sterile distilled water rinses. The seeds are germinated on an agar medium containing B5 salts, 0.5% sucrose and 0.8% agar. Seven-day old seedlings are inoculated with overnight cultures of Agrobacterium strains carrying pTiB6S3-SE by scoring the internode or stabbing the internode with a syringe and using another syringe to introduce the bacteria into the wound. Tumors form in 2-3 weeks. The tumors are removed from the seedlings and grown independently on MS medium without hormones. Transformed callus and shoots are also obtained following a different procedure. Seeds are surface sterilized and placed on the germination medium above. Germination is carried out in the light for 10 days. Hypocotyl segments, 2-3 mm are, excised and inoculated with Agrobacterium strains containing engineered constructs. The hypocotyls are co-cultured for 2 days on a medium containing MS salts and vitamins, 5 g/l KN03, 100 mg/l inositol, 40 mg/l adenine sulfate, 500 mg/l casamino acids, 1 mg/l NAA, 1 mg/l BA, 0.1 mg/l GA3, […] and 8 gm/l agar. After co-culture, the hypocotyls are placed on the same medium but containing 300 mg/l kanamycin and 500 mg/l carbenicillin.\nA. tumefaciens containing binary vectors pMON546 and helper plasmid pTiB6S3-SE are used to produce tumors and callus and regenerated plants."}},
  "data": [
    {"smiles": "O=C(O)CNCP(=O)(O)O", "note": "[glyphosate, N-phosphonomethylglycine]", "values": [
      {"measurement": "viability at 500 µM", "setting": "MP4 cells; estimated, read-out: cells which survived, share of the starting population", "result": "< 1", "unit": "%"},
      {"measurement": "ability of cells to reproduce", "setting": "MP4 cells; MS media", "result": "large majority of cells were unable to reproduce"},
      {"measurement": "callus growth from leaves", "setting": "tobacco leaf fragments; control tobacco leaves (pMON200 vector alone)", "result": "completely inhibited and showed no signs of callus growth"},
      {"measurement": "glyphosate resistance of leaves", "setting": "tobacco leaf fragments; leaves from plants transformed with chimeric petunia EPSPS gene (pMON546)", "result": "confers glyphosate resistance to tobacco plants"},
      {"measurement": "resistance of tissue", "setting": "[1]", "result": "exhibits substantial resistance to glyphosate"},
      {"measurement": "reproductive scores (scale 0-10)", "setting": "transgenic canola lines; 0.28 Kg/ha, 28 days after spraying, three of the seven lines with FMV promoter (pMON996) versus CaMVe35S lines (pMON899), FIG. 14", "result": "better than any of the scores from lines containing the CaMVe35S promoter (pMON899)"},
      {"measurement": "level of glyphosate tolerance", "setting": "transgenic canola lines; transgenic lines containing pMON899 (CaMVe35S promoter) used in FIG. 14", "result": "highest levels of glyphosate tolerance among 150 lines previously tested"},
      {"measurement": "callus response", "setting": "[2]; callus without the glyphosate resistance gene", "result": "kill callus without the glyphosate resistance gene"},
      {"measurement": "tumor response", "setting": "[2]; control tumors which do not contain the glyphosate resistance gene", "result": "bleach and kill control tumors"},
      {"measurement": "callus tolerance", "setting": "[2]; non-tumorous callus transformed with pMON546", "result": "show tolerance to levels of glyphosate"},
      {"measurement": "tumor tolerance", "setting": "[2]; tumors produced with pMON546", "result": "exhibit tolerance to glyphosate"}
    ]}
  ]
}
